Source: publication PMC12340070, “A novel modulator of IL-6R prevents inflammation-induced preterm birth and improves newborn outcome” (EMBO Molecular Medicine, 2025)
Values joined by “and” are separate entries in the source; they are usually repeats but may differ in a detail not shown here. Equal values may be shown once.

System: LPS-induced preterm birth in CD-1 mice
Assay: STAT3 inhibitor efficacy in LPS-induced PTB: gestational length and prematurity rate
Format: in vivo, mouse
Details: for prevention of LPS-induced PTB: 5 mg/kg/day s.c., twice a day, GD16; for % PTB: group value; for GD (gestation day): individual dams, one per line
Experimental: Timed pregnant CD-1 mice at days 16 and 17 of gestation were anesthetized with isoflurane and given intraperitoneal (i.p.) injections of LPS (4 μg in 100 μL saline on GD16 and 6 μg in 100 μL saline on GD17, total 10 μg) or vehicle (100 μL). Doses of LPS were selected based on previous reports (Chang et al, [2011]; Elovitz and Mrinalini, [2004]; Fidel et al, [1994]; Sadowsky et al, [2006]; Salminen et al, [2008]; Urakubo et al, [2001]), preliminary dose–response experiments, and knowing that a systemic maternal infection is associated with the onset of labor (Romero et al, [2001]). A total of 100 μL of HSJ633 or HSJ639 (2 mg/kg/day), an anti-IL-6R antibody (800 μg/kg/day) or vehicle was injected subcutaneously (s.c.) 30 min before injections of LPS (to allow distribution of drugs to target tissues) and repeated twice daily until GD18.5.
Thirty minutes before administering LPS, on GD16, NSC74859 (5 mg/kg/day solubilized in 20% DMSO + water, injected twice a day s.c.) or rmgp130/Fc Chimera (10 μg i.p. on GD16 and 10 μg s.c. on GD16.5) were injected into distinct dams. The same LPS-induction PTB model as described above was used for these experiments (4 μg on GD16 + 6 μg on GD17, i.p.). Delivery was assessed until term (GD18.5–19.5).

## Cc1ccc(S(=O)(=O)OCC(=O)Nc2ccc(C(=O)O)c(O)c2)cc1 [NSC74859]
  prevention of LPS-induced PTB: successfully inhibited preterm birth
Listed as NCS74859
  prevention of LPS-induced PTB: effective in preventing LPS-induced PTB
Experiment of April 2022, less than 18 days = PTB
  % PTB: 25.00%
Experiment of April 2022, 18.5 days and more = term
  GD (gestation day): 18 and 18.5 and 19
Experiment of May 2022
  % PTB: 20.00%
  GD (gestation day): 19.5 and 18.5 and 17.5
third, undated experiment
  % PTB: 42.86%
  GD (gestation day): 17 and 17.5 and 19 and 19.5
